Data as given in patent US12692253B2, “Antimicrobial compounds and methods” (Curza Global, LLC, priority 2019, dated 2026).
Like-named read-outs stand apart in the source and are kept apart here.

How the values were obtained:
E. faecalis (Ef) = assay: Broth microdilution minimum inhibitory concentration (MIC), CLSI; assay type: cell-based; conditions: for MIC: Enterococcus faecalis, read-out: Ef + bicarb MIC
Outline: (§1)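 CLSI M07-A9 broth microdilution, slightly modified: 8 two-fold compound dilutions in triplicate, CAMHB ± bicarbonate (6.25 or 25 mM final) or 0-50% heat-inactivated human serum; 5×10^4 CFU/well.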

E. coli (Ec) = assay: as above; assay type: cell-based; conditions: for MIC: Escherichia coli, read-out: E. coli + bicarb MIC
Outline: as §1

P. aeruginosa (Pa) = assay: as above; assay type: cell-based; conditions: for MIC: Pseudomonas aeruginosa, read-out: Pa MIC + bicarb
Outline: as §1

A. baumannn (Ab) = assay: as above; assay type: cell-based; conditions: for MIC: read-out: Ab + bicarb MIC
Outline: as §1

S. aureus (Sa) = assay: as above; assay type: cell-based; conditions: for MIC: Staphylococcus aureus, read-out: Sa + bicarb MIC
Outline: as §1

[1] = system: E. coli S30 extract (bacterial protein synthesis); assay: E. coli S30 extract coupled transcription-translation luciferase assay (inhibition of bacterial protein synthesis); assay type: biochemical; conditions: read-out: S30 IC50 (μM/% inhib.)
Outline: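 Luciferase luminescence quantified inhibition of protein synthesis relative to water controls, with no-DNA reactions giving background. Compounds in 2-fold serial dilution (8 levels) were incubated 1 hour at 37 °C with E. coli S30 extract, amino acids and pBESTluc plasmid, then chilled to stop.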

[2] = biological target: Rabbit Reticulocyte Lysate (eukaryotic protein synthesis); assay: Rabbit reticulocyte lysate luciferase assay (inhibition of eukaryotic protein synthesis); assay type: biochemical; conditions: read-out: Rabbit reticulocyte IC50 (μM/% inhib.)
Outline: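 Percent inhibition calculated against water-only controls from luminescence; background set by lysate lacking RNA. Compounds, 8-point 2-fold titration, incubated 90 minutes at 30° C with nuclease-treated rabbit reticulocyte lysate programmed with luciferase control RNA plus complete amino acids.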

[3] = growth medium supplemented with sodium bicarbonate
[4] = class by IC50 or % inhibition @ 1 μM
[5] = growth medium with sodium bicarbonate
[6] = A. baumannn, growth medium with sodium bicarbonate

N[C@@H]1[C@H]2CN(Cc3ccc(-n4ccc(NC(=O)N5CCC6(CCNC6)C5)nc4=O)cc3)C[C@@H]12 (stereo partly drawn) [Compound 63]
MIC (E. faecalis (Ef); [3]): > 32 µg/mL
MIC (E. coli (Ec); [3]): > 32 µg/mL
MIC (P. aeruginosa (Pa); [3]): > 32 µg/mL
MIC (A. baumannn (Ab); Acinetobacter baumannii): > 32 µg/mL
MIC (S. aureus (Sa); [3]): > 32 µg/mL
IC50 [1, 4]: ≥ 1 µM
IC50 [2, 4]: ≥ 1 µM

NC[C@@H]1CCN(C(=O)Nc2ccn(-c3ccc(CN4C[C@@H]5[C@@H](N)[C@@H]5C4)cc3)c(=O)n2)C1 [Compound 251]
MIC (E. faecalis (Ef); [5]): > 32 µg/mL
MIC (E. coli (Ec); [5]): > 32 µg/mL
MIC (P. aeruginosa (Pa); [5]): > 32 µg/mL
MIC (A. baumannn (Ab); [6]): > 32 µg/mL
MIC (S. aureus (Sa); [5]): > 32 µg/mL
IC50 ([1]; % inhibition @ 1 μM): ≥ 1 µM
IC50 ([2]; % inhibition @ 1 μM): ≥ 1 µM

CC(Cc1ccc(-n2ccc(NC(=O)N3CCN(C(=O)C(C)(C)N)CC3)nc2=O)cc1)N1CC2CCC(N)C2C1 (stereo not drawn) [Compound 214]
MIC (E. faecalis (Ef); [5]): < 8 µg/mL
MIC (E. coli (Ec); [5]): < 8 µg/mL
MIC (P. aeruginosa (Pa); [5]): > 32 µg/mL
MIC (A. baumannn (Ab); [6]): > 32 µg/mL
MIC (S. aureus (Sa); [5]): < 8 µg/mL
IC50 ([1]; % inhibition @ 1 μM): < 0.5 µM
IC50 ([2]; % inhibition @ 1 μM): ≥ 1 µM

C[C@@](N)(CO)C(=O)N1CCN(C(=O)Nc2ccn(-c3ccc(CCN4CCC5CC5(N)C4)cc3)c(=O)n2)CC1 (stereo partly drawn) [Compound 99]
MIC (E. faecalis (Ef); [3]): 8 to 32 µg/mL
MIC (E. coli (Ec); [3]): < 8 µg/mL
MIC (P. aeruginosa (Pa); [3]): > 32 µg/mL
MIC (A. baumannn (Ab); Acinetobacter baumannii): > 32 µg/mL
MIC (S. aureus (Sa); [3]): < 8 µg/mL
IC50 [1, 4]: 0.5 to 1 µM
IC50 [2, 4]: ≥ 1 µM

CC(Cc1ccc(-n2ccc(NC(=O)N3CCN(C(=O)C(C)(C)N)CC3)nc2=O)cc1)N1CCC2(CC1)CC2CN (stereo not drawn) [Compound 237]
MIC (E. faecalis (Ef); [5]): > 32 µg/mL
MIC (E. coli (Ec); [5]): < 8 µg/mL
MIC (P. aeruginosa (Pa); [5]): > 32 µg/mL
MIC (A. baumannn (Ab); [6]): > 32 µg/mL
MIC (S. aureus (Sa); [5]): > 32 µg/mL
IC50 ([1]; % inhibition @ 1 μM): ≥ 1 µM
IC50 ([2]; % inhibition @ 1 μM): ≥ 1 µM

CC(C)(N)C(=O)N1CCN(C(=O)Nc2ccn(-c3ccc(C[C@H](N)C(=O)N4CC5CC5(CN)C4)cc3)c(=O)n2)CC1 (stereo partly drawn) [Compound 183]
MIC (E. faecalis (Ef); [5]): > 32 µg/mL
MIC (E. coli (Ec); [5]): > 32 µg/mL
MIC (P. aeruginosa (Pa); [5]): > 32 µg/mL
MIC (A. baumannn (Ab); [6]): > 32 µg/mL
MIC (S. aureus (Sa); [5]): > 32 µg/mL
IC50 ([1]; % inhibition @ 1 μM): ≥ 1 µM
IC50 ([2]; % inhibition @ 1 μM): ≥ 1 µM

CC(C)(N)C(=O)N1CCN(C(=O)Nc2ccn(-c3ccc(CN4C5CCC4CC(N)C5)cc3)c(=O)n2)CC1 (stereo not drawn) [Compound 59]
Ef + bicarb MIC (E. faecalis (Ef); [3]): +++ (An MIC value (μg/mL) that is less than 8 μg/mL)
E. coli + bicarb MIC (E. coli (Ec); [3]): +++ (An MIC value (μg/mL) that is less than 8 μg/mL)
Pa MIC + bicarb (P. aeruginosa (Pa); [3]): + (An MIC (μg/mL) value that is 32 μg/mL or greater)
Ab + bicarb MIC (A. baumannn (Ab); A. baumannii, growth medium supplemented with sodium bicarbonate): + (An MIC (μg/mL) value that is 32 μg/mL or greater)
Sa + bicarb MIC (S. aureus (Sa); [3]): +++ (An MIC value (μg/mL) that is less than 8 μg/mL)
IC50 [1, 4]: < 0.5 µM
IC50 [2, 4]: ≥ 1 µM

CCN(Cc1ccc(-n2ccc(NC(=O)N3CCN(C(=O)C(C)(C)N)CC3)nc2=O)cc1)C12CCC(N)(CC1)C2 [Compound 166]
MIC (E. faecalis (Ef); [5]): < 8 µg/mL
MIC (E. coli (Ec); [5]): < 8 µg/mL
MIC (P. aeruginosa (Pa); [5]): > 32 µg/mL
MIC (A. baumannn (Ab); [6]): 8 to 32 µg/mL
MIC (S. aureus (Sa); [5]): < 8 µg/mL
IC50 ([1]; % inhibition @ 1 μM): < 0.5 µM
IC50 ([2]; % inhibition @ 1 μM): ≥ 1 µM

CC(C)(N)C(=O)N1CCN(C(=O)Nc2ccn(-c3ccc(CN4CCC5(CC4)CNC5)cc3)c(=O)n2)CC1 [Compound 83]
MIC (E. faecalis (Ef); [3]): > 32 µg/mL
MIC (E. coli (Ec); [3]): < 8 µg/mL
MIC (P. aeruginosa (Pa); [3]): > 32 µg/mL
MIC (A. baumannn (Ab); Acinetobacter baumannii): > 32 µg/mL
MIC (S. aureus (Sa); [3]): < 8 µg/mL
IC50 [1, 4]: 0.5 to 1 µM
IC50 [2, 4]: ≥ 1 µM

CC(Cc1ccc(-n2ccc(NC(=O)N3CCN(C(=O)[C@@H](N)CCCCN)CC3)nc2=O)cc1)N1C[C@@H]2[C@@H](CN)[C@@H]2C1 (stereo partly drawn) [Compound 240]
MIC (E. faecalis (Ef); [5]): > 32 µg/mL
MIC (E. coli (Ec); [5]): < 8 µg/mL
MIC (P. aeruginosa (Pa); [5]): > 32 µg/mL
MIC (A. baumannn (Ab); [6]): > 32 µg/mL
MIC (S. aureus (Sa); [5]): 8 to 32 µg/mL
IC50 ([1]; % inhibition @ 1 μM): < 0.5 µM
IC50 ([2]; % inhibition @ 1 μM): ≥ 1 µM

CN(CCc1ccc(-n2ccc(NC(=O)N3CCN(C(=O)C(C)(C)N)CC3)nc2=O)cc1)C1CC2(CC(N)C2)C1 (stereo not drawn) [Compound 193]
MIC (E. faecalis (Ef); [5]): 8 to 32 µg/mL
MIC (E. coli (Ec); [5]): < 8 µg/mL
MIC (P. aeruginosa (Pa); [5]): > 32 µg/mL
MIC (A. baumannn (Ab); [6]): > 32 µg/mL
MIC (S. aureus (Sa); [5]): < 8 µg/mL
IC50 ([1]; % inhibition @ 1 μM): ≥ 1 µM
IC50 ([2]; % inhibition @ 1 μM): ≥ 1 µM

CN(Cc1ccc(-n2ccc(NC(=O)N3CCN(C(=O)C(C)(C)N)CC3)nc2=O)cc1)C12CC(CN)(C1)C2 [Compound 174]
MIC (E. faecalis (Ef); [5]): 8 to 32 µg/mL
MIC (E. coli (Ec); [5]): < 8 µg/mL
MIC (P. aeruginosa (Pa); [5]): > 32 µg/mL
MIC (A. baumannn (Ab); [6]): > 32 µg/mL
MIC (S. aureus (Sa); [5]): < 8 µg/mL
IC50 ([1]; % inhibition @ 1 μM): ≥ 1 µM
IC50 ([2]; % inhibition @ 1 μM): ≥ 1 µM
